Experiments:
[1] = system: Boll Weevil (Anthonomus grandis); assay: B.5 Boll weevil egg/larval test on insect diet in microtiter plates; assay type: in vivo; settings: 120 h, egg and larval mortality, 5 days, read-out: mortality in comparison with untreated controls
Procedure: B.5 Boll Weevil (Anthonomus grandis)
For evaluating control of boll weevil (Anthonomus grandis), the test unit consisted of 96-well-microtiter plates containing an insect diet and 5-10 A. grandis eggs.
The compounds were formulated using a solution containing 75% v/v water and 25% v/v DMSO. Different concentrations of formulated compounds were sprayed onto the insect diet at 5 μl, using a custom-built micro atomizer, at two replications.
After application, microtiter plates were incubated at about 25±1° C. and about 75±5% relative humidity for 5 days. Egg and larval mortality was then visually assessed.

[2] = system: Yellow Fever Mosquito (Aedes aegypti); assay: whole plant or invertebrate; assay type: in vivo; settings: 48 h, larval mortality, 2 days, read-out: mortality in comparison with untreated controls
Procedure: B.8 Yellow Fever Mosquito (Aedes aegypti)
For evaluating control of yellow fever mosquito (Aedes aegypti) the test unit consisted of 96-well-microtiter plates containing 200 μl of tap water per well and 5-15 freshly hatched A. aegypti larvae.
The active compounds were formulated using a solution containing 75% (v/v) water and 25% (v/v) DMSO. Different concentrations of formulated compounds or mixtures were sprayed onto the insect diet at 2.5 μl, using a custom-built micro atomizer, at two replications.
After application, microtiter plates were incubated at 28±1° C., 80±5% RH for 2 days. Larval mortality was then visually assessed.

With `C/C(=N/O)n1ncnc1C(C)NC(=O)c1cc(C(F)(F)F)cc(C(F)(F)F)c1` (centres unmarked) [I.1-1, N-[1-[2-[(Z)—N-hydroxy-C-methyl-carbonimidoyl]-1,2,4-triazol-3-yl]ethyl]-3,5-bis(trifluoromethyl)benzamide] the mortality at 2500 ppm [1] was ≥ 75%.

`CCON=C(C)n1ncnc1C(C)NC(=O)c1cc(Cl)cc(C(F)(F)F)c1` (centres unmarked) [I.1-12, 3-chloro-N-[1-[2-(N-ethoxy-C-methyl-carbonimidoyl)-1,2,4-triazol-3-yl]ethyl]-5-(trifluoromethyl)benzamide] was tested, and the mortality at 2500 ppm [1] was ≥ 75% and the mortality at 2500 ppm [2] was ≥ 75%.

For `CC(=NOc1ccccc1)n1ncnc1C(C)NC(=O)c1cc(Cl)cc(C(F)(F)F)c1` (centres unmarked) [I.1-13, 3-chloro-N-[1-[2-[C-methyl-N-phenoxy-carbonimidoyl]-1,2,4-triazol-3-yl]ethyl]-5-(trifluoromethyl)benzamide], the mortality at 2500 ppm [2] was ≥ 75%.

In the case of `C/C(=N\O)n1ncnc1C(C)NC(=O)c1cc(C(F)(F)F)cc(C(F)(F)F)c1` (centres unmarked) [I.1-76, N-[1-[2-[(E)-N-hydroxy-C-methyl-carbonimidoyl]-1,2,4-triazol-3-yl]ethyl]-3,5-bis(trifluoromethyl)benzamide], the mortality at 2500 ppm [1] is reported as ≥ 75%.
